Source: the supplement of paper PMC11451515

System: NOMO1
Assay: cell viability relative to DMSO control; higher = less cytotoxic
Settings: 48 h
Outline: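 Three leukemia lines were tested: NOMO1 and SEM at 500 cells/well and P12-Ichikawa at 1000 cells/well. Each was adapted for at least four passages in each medium and seeded in 5 μl in 1536-well plates, and library compounds in DMSO were pin-dosed from 47 μM to 0.79 nM in 11 threefold steps. After 48 h at 37°C, CellTiter-Glo One luminescence was read. Viability is a percentage relative to DMSO wells on each plate, with cell-free wells as background.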

[1] = HPLM + 10% dialyzed FBS, 0.000781 µM
[2] = HPLM + 10% dialyzed FBS, 0.00234 µM
[3] = HPLM + 10% dialyzed FBS, 0.00702 µM
[4] = HPLM + 10% dialyzed FBS, 0.0211 µM
[5] = HPLM + 10% dialyzed FBS, 0.0632 µM
[6] = HPLM + 10% dialyzed FBS, 0.19 µM
[7] = HPLM + 10% dialyzed FBS, 0.569 µM
[8] = HPLM + 10% dialyzed FBS, 1.71 µM
[9] = HPLM + 10% dialyzed FBS, 5.12 µM
[10] = HPLM + 10% dialyzed FBS, 15.4 µM
[11] = HPLM + 10% dialyzed FBS, 46.1 µM
[12] = RPMI 5 mM glucose + 10% dialyzed FBS, 0.000781 µM
[13] = RPMI 5 mM glucose + 10% dialyzed FBS, 0.00234 µM
[14] = RPMI 5 mM glucose + 10% dialyzed FBS, 0.00702 µM
[15] = RPMI 5 mM glucose + 10% dialyzed FBS, 0.0211 µM
[16] = RPMI 5 mM glucose + 10% dialyzed FBS, 0.0632 µM
[17] = RPMI 5 mM glucose + 10% dialyzed FBS, 0.19 µM
[18] = RPMI 5 mM glucose + 10% dialyzed FBS, 0.569 µM
[19] = RPMI 5 mM glucose + 10% dialyzed FBS, 1.71 µM
[20] = RPMI 5 mM glucose + 10% dialyzed FBS, 5.12 µM
[21] = RPMI 5 mM glucose + 10% dialyzed FBS, 15.4 µM
[22] = RPMI 5 mM glucose + 10% dialyzed FBS, 46.1 µM
[23] = RPMI 5 mM glucose + 10% FBS, 0.000781 µM
[24] = RPMI 5 mM glucose + 10% FBS, 0.00234 µM
[25] = RPMI 5 mM glucose + 10% FBS, 0.00702 µM
[26] = RPMI 5 mM glucose + 10% FBS, 0.0211 µM
[27] = RPMI 5 mM glucose + 10% FBS, 0.0632 µM
[28] = RPMI 5 mM glucose + 10% FBS, 0.19 µM
[29] = RPMI 5 mM glucose + 10% FBS, 0.569 µM
[30] = RPMI 5 mM glucose + 10% FBS, 1.71 µM
[31] = RPMI 5 mM glucose + 10% FBS, 5.12 µM
[32] = RPMI 5 mM glucose + 10% FBS, 15.4 µM
[33] = RPMI 5 mM glucose + 10% FBS, 46.1 µM

Row | Structure (SMILES) | cell viability [1] [%] | cell viability [2] [%] | cell viability [3] [%] | cell viability [4] [%] | cell viability [5] [%] | cell viability [6] [%] | cell viability [7] [%] | cell viability [8] [%] | cell viability [9] [%] | cell viability [10] [%] | cell viability [11] [%] | cell viability [12] [%] | cell viability [13] [%] | cell viability [14] [%] | cell viability [15] [%] | cell viability [16] [%] | cell viability [17] [%] | cell viability [18] [%] | cell viability [19] [%] | cell viability [20] [%] | cell viability [21] [%] | cell viability [22] [%] | cell viability [23] [%] | cell viability [24] [%] | cell viability [25] [%] | cell viability [26] [%] | cell viability [27] [%] | cell viability [28] [%] | cell viability [29] [%] | cell viability [30] [%] | cell viability [31] [%] | cell viability [32] [%] | cell viability [33] [%]
1 | Cc1ncc([N+](=O)[O-])n1CCO | 112 | 122 | 126 | 145 | 130 | 122 | 120 | 137 | 116 | 142 | 120 | 113 | 113 | 125 | 131 | 137 | 140 | 132 | 142 | 129 | 136 | 130 | – | – | – | – | – | – | – | – | – | – | –
2 | OC(COC1=C2C(=O)\C=C(/OC2=CC=C1)C([O-])=O)COC3=C4C(=O)\C=C(/OC4=CC=C3)C([O-])=O | 95.5 | 86.8 | 93.7 | 94.2 | 94.8 | 80.8 | 96.3 | 86.1 | 86.3 | 94.5 | 93 | 75.4 | 82 | 73.3 | 76.4 | 86 | 72.7 | 89.1 | 88.6 | 87.9 | 86 | 90.4 | 72.6 | 74.5 | 74.7 | 76.4 | 80.4 | 74.5 | 74.8 | 83.3 | 71 | 80.3 | 84.8
3 | Cc1c(C(=O)Nc2cccc(C(F)(F)F)c2)cc(-c2ccccc2)n1CCCN1CCOCC1 | 104 | 99.5 | 112 | 109 | 97.2 | 113 | 129 | 116 | 105 | 95.9 | 82.5 | 115 | 107 | 111 | 109 | 108 | 117 | 111 | 111 | 109 | 91.4 | 73.3 | 107 | 105 | 111 | 100 | 102 | 101 | 96.5 | 92.4 | 91.7 | 96.4 | 95.2
4 | CN(C)CCCNC(=O)c1ccc(-c2cc(O)c3ncccc3c2)cc1 | 113 | 110 | 109 | 107 | 105 | 85.9 | 117 | 98.8 | 114 | 86.7 | 60.1 | 96.3 | 94.6 | 112 | 98.1 | 102 | 112 | 94.2 | 101 | 106 | 91.1 | 62.8 | 89.1 | 89.5 | 96.2 | 99.5 | 103 | 84 | 86.1 | 87.7 | 97.2 | 85.9 | 82.4
5 | CC(C)(C)c1cc(C(=O)O)c(NC(=O)Nc2ccc3[nH]ncc3c2)s1 | 98.5 | 106 | 101 | 90.7 | 91.1 | 86.6 | 90.5 | 93.9 | 98.8 | 77.2 | 74.3 | 87.9 | 92.5 | 84 | 89.5 | 90.9 | 83.1 | 83 | 94.9 | 102 | 82.8 | 81.6 | 85.9 | 93.1 | 86.6 | 90.2 | 89.9 | 92.3 | 91.5 | 83.9 | 91.2 | 77.3 | 78
6 | C[C@@H]1C[C@H]2[C@@H]3CC\C4=C\C(=O)\C=C/[C@]4(C)[C@@]3(Cl)[C@@H](O)C[C@]2(C)[C@@]1(OC(=O)C5=CC=CO5)C(=O)CCl | 118 | 109 | 113 | 115 | 118 | 99.2 | 103 | 107 | 81.9 | 71.6 | 84.2 | 95.1 | 112 | 106 | 113 | 105 | 110 | 98 | 109 | 97.9 | 65.4 | 79.7 | 112 | 111 | 101 | 102 | 104 | 103 | 108 | 101 | 97.1 | 70.5 | 84.2
7 | CCN1C[C@]2(OC(=O)c3ccccc3NC(C)=O)CC[C@H](OC)[C@@]34[C@@H]2C[C@@H]([C@@H]13)[C@@]1(O)C[C@H](OC)[C@H]2C[C@@H]4[C@]1(O)[C@H]2OC | 106 | 101 | 118 | 101 | 108 | 88.3 | 118 | 103 | 112 | 93.2 | 114 | 98 | 104 | 120 | 99.1 | 105 | 105 | 109 | 107 | 111 | 106 | 95.9 | 96.3 | 99.4 | 101 | 106 | 103 | 91.6 | 118 | 107 | 95.1 | 101 | 107
